Test results: ChEMBL document CHEMBL1153371, “Antiseizure activity of novel gamma-aminobutyric acid (A) receptor subtype-selective benzodiazepine analogues in mice and rat models” (J Med Chem, 2009)
The source made the active and inactive calls. No cut-off for these calls is given here.

Assays:
[1] = test system: Rattus norvegicus; experiment: Toxicity in rat assessed as motor impairment at 50 mg/kg, po after 0.5 hrs by rotarod paradigm test; assay type: organism-based; parameters: dose 50 mg/kg, route oral; details: in vivo
[2] = Therapeutic index, ratio of TD50 for ip dosed mouse to ED50 for protection against subcutaneous metrazole-induced seizure in ip dosed mouse; assay type: organism-based; details: in vivo, read-out: Ratio TD50/ED50
[3] = test system: Rattus norvegicus; experiment: Anticonvulsant activity in rat assessed as protection against subcutaneous metrazole-induced seizure at 50 mg/kg, po after 0.5 hrs; assay type: functional
[4] = test system: Rattus norvegicus; experiment: Anticonvulsant activity in rat assessed as protection against maximal electroshock-induced seizure at 30 mg/kg, ip and po after 0.5 hrs; assay type: functional, organism-based; parameters: dose 30 mg/kg
[5] = Therapeutic index, ratio of TD50 for po dosed rat to ED50 for protection against subcutaneous metrazole-induced seizure in po dosed rat; assay type: organism-based; details: in vivo, read-out: Ratio TD50/ED50
[6] = test system: Mus musculus; experiment: Anticonvulsant activity in ip dosed mouse assessed as protection against maximal electroshock-induced seizure; assay type: functional
[7] = test system: Rattus norvegicus; experiment: Anticonvulsant activity in rat assessed as protection against maximal electroshock-induced seizure at 30 mg/kg, ip and po after 4 hrs; assay type: functional, organism-based; parameters: dose 30 mg/kg
[8] = test system: Rattus norvegicus; experiment: Anticonvulsant activity against kindle motor-induced seizure in rat assessed as after discharge duration at 10 mg/kg, ip by hippocampal kindling screen test; assay type: functional, Hippocampus; details: route intraperitoneal
[9] = test system: Rattus norvegicus; experiment: Toxicity in rat assessed as motor impairment at 50 mg/kg, po after 4 hrs by rotarod paradigm test; assay type: organism-based; parameters: dose 50 mg/kg, route oral; details: in vivo
[10] = test system: Rattus norvegicus; experiment: Anticonvulsant activity in rat assessed as protection against subcutaneous metrazole-induced seizure at 15 mg/kg, po after 4 hrs; assay type: functional
[11] = test system: Rattus norvegicus; experiment: Anticonvulsant activity in po dosed rat assessed as protection against subcutaneous metrazole-induced seizure; assay type: functional
[12] = test system: Mus musculus; experiment: Anticonvulsant activity in ip dosed mouse assessed as protection against subcutaneous metrazole-induced seizure; assay type: functional
[13] = test system: Rattus norvegicus; experiment: Toxicity in rat assessed as motor impairment at 3 mg/kg, ip after 1 hr by rotarod paradigm test; assay type: organism-based; parameters: dose 3 mg/kg, route intraperitoneal; details: in vivo
[14] = test system: Rattus norvegicus; experiment: Anticonvulsant activity in rat assessed as blockade against kindle motor-induced seizure at 10 mg/kg, ip by hippocampal kindling screen test; assay type: functional, organism-based; parameters: dose 10 mg/kg; details: Hippocampus
[15] = test system: Rattus norvegicus; experiment: Anticonvulsant activity in po dosed rat assessed as protection against maximal electroshock-induced seizure; assay type: functional
[16] = Toxicity in po dosed rat assessed as minimal muscular or neurological impairment by rotarod paradigm test; assay type: organism-based; details: in vivo
[17] = test system: Rattus norvegicus; experiment: Anticonvulsant activity in rat assessed as protection against subcutaneous metrazole-induced seizure at 50 mg/kg, ip after 0.5 hrs; assay type: functional
[18] = target: GABA-A receptor; alpha-2/beta-3/gamma-2 (Homo sapiens) (UniProt P18507+P28472+P47869); experiment: Activity at GABAA alpha-2-beta-3-gamma-2 receptor expressed in oocytes assessed as stimulation of GABA-induced current at 1 uM relative to control; assay type: cell-based; details: Oocyte
[19] = test system: Rattus norvegicus; experiment: Toxicity in rat assessed as sedative effect at 500 mg/kg, po; assay type: organism-based; parameters: dose 500 mg/kg, route oral; details: in vivo
[20] = test system: Mus musculus; experiment: Toxicity in mouse assessed as motor impairment at 100 mg/kg, ip after 0.5 hrs by rotarod paradigm test; assay type: organism-based; parameters: dose 100 mg/kg, route intraperitoneal; details: in vivo
[21] = test system: Rattus norvegicus; experiment: Toxicity in rat assessed as motor impairment at 30 mg/kg, ip after 1 hr by rotarod paradigm test; assay type: organism-based; parameters: dose 30 mg/kg, route intraperitoneal; details: in vivo
[22] = test system: Mus musculus; experiment: Anticonvulsant activity in mouse assessed as protection against subcutaneous metrazole-induced seizure at 100 mg/kg, ip after 4 hrs; assay type: functional, organism-based; parameters: dose 100 mg/kg
[23] = test system: Rattus norvegicus; experiment: Toxicity in rat assessed as motor impairment at 50 mg/kg, ip after 0.5 hrs by rotarod paradigm test; assay type: organism-based; parameters: dose 50 mg/kg, route intraperitoneal; details: in vivo
[24] = test system: Mus musculus; experiment: Anticonvulsant activity in mouse assessed as protection against maximal electroshock-induced seizure at 100 mg/kg, ip after 4 hrs; assay type: functional, organism-based; parameters: dose 100 mg/kg
[25] = test system: Mus musculus; experiment: Toxicity in mouse assessed as motor impairment at 100 mg/kg, ip after 4 hrs by rotarod paradigm test; assay type: organism-based; parameters: dose 100 mg/kg, route intraperitoneal; details: in vivo
[26] = test system: Rattus norvegicus; experiment: Anticonvulsant activity in rat assessed as blockade against kindle motor-induced seizure at 100 mg/kg, ip by hippocampal kindling screen test; assay type: functional, organism-based; parameters: dose 100 mg/kg; details: Hippocampus
[27] = test system: Rattus norvegicus; experiment: Anticonvulsant activity in rat assessed as protection against subcutaneous metrazole-induced seizure at 50 mg/kg, ip after 4 hrs; assay type: functional
[28] = test system: Rattus norvegicus; experiment: Toxicity in rat assessed as motor impairment at 50 mg/kg, ip after 1 hr by rotarod paradigm test; assay type: organism-based; parameters: dose 50 mg/kg, route intraperitoneal; details: in vivo
[29] = target: GABA-A receptor; alpha-1/beta-3/gamma-2 (Homo sapiens) (UniProt P14867+P18507+P28472); experiment: Activity at GABAA alpha-1-beta-3-gamma-2 receptor expressed in oocytes assessed as stimulation of GABA-induced current at 1 uM relative to control; assay type: cell-based; details: Oocyte
[30] = test system: Rattus norvegicus; experiment: Anticonvulsant activity against kindle motor-induced seizure in rat assessed as after discharge duration at 100 mg/kg, ip by hippocampal kindling screen test; assay type: functional, Hippocampus; details: route intraperitoneal
[31] = test system: Mus musculus; experiment: Anticonvulsant activity in mouse assessed as protection against maximal electroshock-induced seizure at 100 mg/kg, ip after 0.5 hrs; assay type: functional, organism-based; parameters: dose 100 mg/kg
[32] = target: T1, Gamma-aminobutyric acid receptor subunit alpha-3 (Homo sapiens) (UniProt P34903); experiment: Activity at GABAA alpha-3-beta-3-gamma-2 receptor expressed in oocytes assessed as stimulation of GABA-induced current at 1 uM relative to control; assay type: cell-based; details: Oocyte
T1 sequence (whole entry): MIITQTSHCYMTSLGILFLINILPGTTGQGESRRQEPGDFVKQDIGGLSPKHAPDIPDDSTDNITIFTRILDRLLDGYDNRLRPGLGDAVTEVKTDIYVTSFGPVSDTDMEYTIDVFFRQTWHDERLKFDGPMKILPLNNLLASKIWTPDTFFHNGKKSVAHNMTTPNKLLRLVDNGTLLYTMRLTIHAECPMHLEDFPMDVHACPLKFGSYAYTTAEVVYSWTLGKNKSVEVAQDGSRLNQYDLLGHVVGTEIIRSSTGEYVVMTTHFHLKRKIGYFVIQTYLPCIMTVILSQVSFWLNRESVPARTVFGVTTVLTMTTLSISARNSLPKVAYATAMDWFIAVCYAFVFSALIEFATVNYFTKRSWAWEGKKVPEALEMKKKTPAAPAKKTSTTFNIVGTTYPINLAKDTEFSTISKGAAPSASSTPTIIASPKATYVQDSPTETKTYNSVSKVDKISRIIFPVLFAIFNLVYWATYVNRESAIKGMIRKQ

[33] = target: GABA-A receptor; alpha-5/beta-3/gamma-2 (Homo sapiens) (UniProt P18507+P28472+P31644); experiment: Activity at GABAA alpha-5-beta-3-gamma-2 receptor expressed in oocytes assessed as stimulation of GABA-induced current at 1 uM relative to control; assay type: cell-based; details: Oocyte
[34] = Toxicity in ip dosed mouse assessed as minimal muscular or neurological impairment by rotarod paradigm test; assay type: organism-based; details: in vivo
[35] = test system: Rattus norvegicus; experiment: Anticonvulsant activity in rat assessed as blockade against kindle motor-induced seizure at 50 mg/kg, ip by hippocampal kindling screen test; assay type: functional, organism-based; parameters: dose 50 mg/kg; details: Hippocampus
[36] = test system: Rattus norvegicus; experiment: Anticonvulsant activity in rat assessed as protection against subcutaneous metrazole-induced seizure at 50 mg/kg, po after 4 hrs; assay type: functional, organism-based; parameters: dose 50 mg/kg
[37] = test system: Rattus norvegicus; experiment: Toxicity in rat assessed as motor impairment at 50 mg/kg, ip after 4 hrs by rotarod paradigm test; assay type: organism-based; parameters: dose 50 mg/kg, route intraperitoneal; details: in vivo
[38] = test system: Rattus norvegicus; experiment: Anticonvulsant activity against kindle motor-induced seizure in rat assessed as after discharge duration at 50 mg/kg, ip by hippocampal kindling screen test; assay type: functional, Hippocampus; details: route intraperitoneal
[39] = test system: Rattus norvegicus; experiment: Toxicity in rat assessed as motor impairment at 50 mg/kg, po after 1 hr by rotarod paradigm test; assay type: organism-based; parameters: dose 50 mg/kg, route oral; details: in vivo

Row | SMILES | selectivity ratio [2] | selectivity ratio [5] | ED50 [6] [mg/kg] | ED50 [11] [mg/kg] | ED50 [12] [mg/kg] | ED50 [15] [mg/kg] | TD50 [16] [mg/kg] | Activity [18] [%] | Activity [23] | Activity [29] [%] | Activity [32] [%] | Activity [33] [%] | TD50 [34] [mg/kg] | also measured
1 | C#Cc1ccc2c(c1)C(c1ccccc1Cl)=NCc1nnc(C)n1-2 | 2.8 | > 105 | > 6 | 1.58 | 1.03 | > 150 |  |  |  |  |  |  |  | Activity [1]: Non-toxic; Activity [3]: Active; Activity [4]: inactive; Activity [7]: inactive; Activity [8]: 92 s; Activity [9]: Non-toxic; Activity [10]: 50%; Activity [13]: Non-toxic; Activity [14]: Active
2 | O=C1NC(=O)C(c2ccccc2)(c2ccccc2)N1 [PHENYTOIN] | < 0.82 | 2 | 5.64 | > 500 | > 50 | 28.1 | > 1000 |  |  |  |  |  |  | 
3 | C#Cc1ccc2c(c1)C(c1ccccn1)=NCc1c(C(=O)OCC)ncn1-2 | > 30.2 | > 5 | > 300 | 98.5 | 16.3 | > 250 | > 500 | 313 | Non-toxic | 167 | 346 | 174 | > 500 | Activity [17]: 88%; Activity [19]: Non-toxic; Activity [20]: Non-toxic; Activity [21]: Non-toxic; Activity [22]: inactive; Activity [3]: 100%; Activity [24]: inactive; Activity [7]: inactive; Activity [25]: Non-toxic; Activity [26]: Active; Activity [27]: 63%; Activity [28]: Non-toxic; Activity [30]: 59 s; Activity [31]: inactive
4 | O=C1CN=C(c2ccccc2Cl)c2cc([N+](=O)[O-])ccc2N1 [CLONAZEPAM] | 13 | 3.9 | 25.6 | 0.61 | 0.02 | 7.86 | 2.38 |  |  |  |  |  | 0.26 | 
5 | CN1C(=O)CN=C(c2ccccc2)c2cc(Cl)ccc21 |  |  |  |  |  |  |  | 508 |  | 345 | 776 | 420 |  | 
6 | C#Cc1ccc2c(c1)C(c1ccccc1F)=NCc1c(C(=O)OCC)ncn1-2 | > 44 | > 21.1 | > 200 | 23.7 | 8.87 | > 250 | > 500 | 410 | Non-toxic | 248 | 596 | 246 | > 400 | Activity [35]: Active; Activity [36]: Active; Activity [21]: Non-toxic; Activity [4]: inactive; Activity [37]: Non-toxic; Activity [38]: 38 s
7 | NC(=O)N1c2ccccc2C=Cc2ccccc21 [CARBAMAZEPINE] |  |  | 7.81 | > 250 | > 50 | 5.35 |  |  |  |  |  |  |  | 
8 | CCOC(=O)c1ncn2c1CN=C(c1ccccc1F)c1cc(I)ccc1-2 |  |  |  |  |  |  |  |  | Non-toxic |  |  |  |  | Activity [17]: inactive; Activity [1]: Non-toxic; Activity [27]: inactive; Activity [37]: Non-toxic; Activity [39]: Non-toxic
